Experimental data reported in patent US20120244120A1, “INHIBITORS OF HEMOPOIETIC CELL KINASE (P59-HCK) AND THEIR USE IN THE TREATMENT OF INFLUENZA INFECTION” (priority 2009, published 2012).
Marks after values point to notes of the source that are not given here.

Experiments:
HCK enzyme = HCK enzyme (Homo sapiens, UniProt P08631); assay: HCK enzyme assay (Z'-LYTE FRET); format: biochemical; conditions: 2 hr pre-incubation, ATP 15 μM
c-Src enzyme = c-Src enzyme (Homo sapiens, UniProt P12931); assay: c-Src enzyme assay (Z'-LYTE FRET); format: biochemical; conditions: ATP 200 μM
Chain of c-Src enzyme (P12931 whole entry): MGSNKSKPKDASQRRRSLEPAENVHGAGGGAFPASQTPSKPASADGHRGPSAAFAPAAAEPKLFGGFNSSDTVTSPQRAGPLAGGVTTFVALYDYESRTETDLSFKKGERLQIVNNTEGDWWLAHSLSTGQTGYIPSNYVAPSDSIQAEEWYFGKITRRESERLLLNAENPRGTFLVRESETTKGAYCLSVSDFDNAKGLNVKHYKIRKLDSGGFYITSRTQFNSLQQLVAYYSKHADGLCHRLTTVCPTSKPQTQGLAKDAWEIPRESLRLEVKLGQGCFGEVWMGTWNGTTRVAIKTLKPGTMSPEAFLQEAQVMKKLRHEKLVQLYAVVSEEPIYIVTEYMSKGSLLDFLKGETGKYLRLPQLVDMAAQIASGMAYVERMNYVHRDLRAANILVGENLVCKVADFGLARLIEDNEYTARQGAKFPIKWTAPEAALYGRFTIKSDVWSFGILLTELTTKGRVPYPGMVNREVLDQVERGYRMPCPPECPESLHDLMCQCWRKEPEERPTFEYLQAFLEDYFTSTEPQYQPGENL

[1] = tested on: influenza (H1N1A/PR/8/34); assay: organism not typed; format: cell-based
MDCK cells = assay: MTT assay (MDCK cells); format: cell-based, canine; conditions: final concentration of 10 μg/mL
Method: The cells were then washed with 10% FCS DMEM, and incubated in 10% FCS DMEM containing 0.25 mg/mL MTT for 2 hr. The media were then removed, 200 μL of DMSO added to each well and the plates were shaken lightly for 1 hr prior to reading the absorbance at 550 nm.

p38 MAPKα (MAPK14) = p38 MAPKα (MAPK14) (Homo sapiens, UniProt Q16539); assay: p38α enzyme assay (Z'-LYTE FRET, via MAPKAP-K2 activation); format: biochemical; conditions: 2 hr pre-incubation, ATP 10 μM
Chain of p38 MAPKα (MAPK14) (Q16539 whole entry): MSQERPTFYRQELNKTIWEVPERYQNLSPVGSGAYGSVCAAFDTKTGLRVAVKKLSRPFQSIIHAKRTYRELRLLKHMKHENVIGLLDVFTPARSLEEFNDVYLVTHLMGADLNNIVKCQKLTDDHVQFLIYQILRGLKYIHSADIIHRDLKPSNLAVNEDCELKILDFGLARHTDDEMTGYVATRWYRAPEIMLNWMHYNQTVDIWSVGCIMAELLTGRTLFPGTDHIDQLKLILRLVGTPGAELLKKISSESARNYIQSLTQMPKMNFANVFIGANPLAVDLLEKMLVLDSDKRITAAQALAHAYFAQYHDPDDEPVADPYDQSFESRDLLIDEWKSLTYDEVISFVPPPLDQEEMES

[2] = tested on: influenza (H3N1 Memphis 71); conditions: mouse, in vivo
[3] = MDCK; read-out: IC50 (nM) Influenza-Induced CPE
[4] = Influenza A virus; MDCK cells, H1N1 A/PR/8/34, MOI 0.1; non-linear regression; read-out: IC50 (nM) Influenza-Induced CPE
[5] = Influenza A virus, MDCK, read-out: IC50 (nM) Influenza-Induced CPE

Chain of HCK enzyme (P08631 22-526): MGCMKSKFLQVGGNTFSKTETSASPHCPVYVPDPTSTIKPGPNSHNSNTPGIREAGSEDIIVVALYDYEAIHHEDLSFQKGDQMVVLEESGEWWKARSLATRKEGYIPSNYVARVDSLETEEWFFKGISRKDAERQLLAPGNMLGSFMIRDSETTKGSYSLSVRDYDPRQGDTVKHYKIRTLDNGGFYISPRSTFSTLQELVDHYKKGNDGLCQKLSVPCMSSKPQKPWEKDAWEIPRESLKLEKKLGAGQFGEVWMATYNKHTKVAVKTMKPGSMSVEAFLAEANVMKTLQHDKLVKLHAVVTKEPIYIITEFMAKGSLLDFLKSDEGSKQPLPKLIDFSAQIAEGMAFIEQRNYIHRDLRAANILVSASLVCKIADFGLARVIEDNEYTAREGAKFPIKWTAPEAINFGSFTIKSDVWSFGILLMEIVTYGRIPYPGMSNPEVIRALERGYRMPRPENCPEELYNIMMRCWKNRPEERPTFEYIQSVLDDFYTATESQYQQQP

In the case of `COCCNC(=O)CNC(=O)Nc1cc(COc2ccc(NC(=O)Nc3cc(C(C)(C)C)nn3-c3ccc(C)cc3)c3ccccc23)ccn1` [Example 15, 2-(3-(4-((4-(3-(3-tert-Butyl-1-p-tolyl-1H-pyrazol-5-yl)ureido)naphthalen-1-yloxy)methyl)pyridin-2-yl)ureido)-N-(2-methoxyethyl)acetamide], the IC50 (HCK enzyme) is reported as 65 nM, the IC50 (c-Src enzyme) is reported as 28 nM and the IC50 [1, 3] is reported as over 0.2 µg/mL. For the same compound, the “MTT assay 4 hr” value (MDCK cells; 4 hr) was “−ve (<30% = −ve)” and the “MTT assay 24 hr” value (MDCK cells; 24 hr) was “−ve (<30% = −ve)”.
In the case of `Cc1ccc(-n2nc(C(C)(C)C)cc2NC(=O)Nc2ccc(OCc3ccnc(NC(=O)CCCN(C)C)c3)c3ccccc23)cc1` [Example 16, N-(4-((4-(3-(3-tert-Butyl-1-p-tolyl-1H-pyrazol-5-yl)ureido)naphthalen-1-yloxy)methyl)pyridin-2-yl)-4-(dimethylamino)butanamide], the IC50 (p38 MAPKα (MAPK14)) is reported as 10.3 nM, the IC50 (HCK enzyme) is reported as 20 nM and the IC50 (c-Src enzyme) is reported as 28 nM. It also gave an IC50 [1, 4] of 166 nM.
`Cc1ccc(-n2nc(C(C)(C)C)cc2NC(=O)Nc2ccc(OCc3ccnc(NC(=O)CCS(C)(=O)=O)c3)c3ccccc23)cc1` [Example 17, N-(4-((4-(3-(3-tert-Butyl-1-p-tolyl-1H-pyrazol-5-yl)ureido)naphthalen-1-yloxy)methyl)pyridin-2-yl)-3-(methylsulfonyl)propanamide] showed an IC50 (p38 MAPKα (MAPK14)) of 2.7 nM, an IC50 (HCK enzyme) of 60 nM and an IC50 (c-Src enzyme) of 149 nM. The IC50 [1, 4] was 64 nM.
`Cc1ccc(-n2nc(C(C)(C)C)cc2NC(=O)Nc2ccc(OCc3ccnc(NC(=O)C[S+](C)[O-])c3)c3ccccc23)cc1` (stereo not shown) [Example 20, N-(4-((4-(3-(3-tert-Butyl-1-p-tolyl-1H-pyrazol-5-yl)ureido)naphthalen-1-yloxy)methyl)pyridin-2-yl)-2-(methylsulfinyl)acetamide] gave an IC50 (HCK enzyme) of 176 nM, an IC50 (c-Src enzyme) of 161 nM and an IC50 [1, 5] of 486 nM.
`Cc1ccc(-n2nc(C(C)(C)C)cc2NC(=O)Nc2ccc(OCc3ccnc(NC(=O)CS(=O)(=O)CCN4CCOCC4)c3)c3ccccc23)cc1` [Example 32, N-(4-((4-(3-(3-tert-Butyl-1-p-tolyl-1H-pyrazol-5-yl)ureido)naphthalen-1-yloxy)methyl)pyridin-2-yl)-2-(2-morpholinoethylsulfonyl)acetamide] was tested, and the IC50 (p38 MAPKα (MAPK14)) was 1 nM, the IC50 (HCK enzyme) was 183 nM and the IC50 (c-Src enzyme) was 111 nM. It also gave an IC50 [1, 3] of over 0.04 µg/mL.
Work on `COCCOCC(=O)Nc1cnccc1COc1ccc(NC(=O)Nc2cc(C(C)(C)C)nn2-c2ccc(C)cc2)c2ccccc12` [Example 36, N-(4-((4-(3-(3-tert-Butyl-1-p-tolyl-1H-pyrazol-5-yl)ureido)naphthalen-1-yloxy)methyl)pyridin-3-yl)-2-(2-methoxyethoxy)acetamide] yielded an IC50 (HCK enzyme) of over 1570 nM, an IC50 (c-Src enzyme) of 9330 nM and an IC50 ([1]; MDCK, read-out: IC50 (nM) Influenza-Induced CPE) of over 0.2 µg/mL.
`CNC(=O)Nc1cnccc1COc1ccc(NC(=O)Nc2cc(C(C)(C)C)nn2-c2ccc(C)cc2)c2ccccc12` [Example 34, 1-(4-((3-Methylureidopyridin-4-yl)methoxy)naphthalen-1-yl)-3-(3-tert-butyl-1-p-tolyl-1H-pyrazol-5-yl)urea] was tested, and the IC50 (HCK enzyme) was 742 nM, the IC50 (c-Src enzyme) was over 17300 nM and the IC50 [1, 3] was over 0.2 µg/mL.
In the case of `COCC(=O)Nc1cc(COc2ccc(NC(=O)Nc3cc(C(C)(C)C)nn3-c3ccc(C)cc3)c3ccccc23)ccn1` [Example 1, N-(4-((4-(3-(3-tert-Butyl-1-p-tolyl-1H-pyrazol-5-yl)ureido)naphthalen-1-yloxy)methyl)pyridin-2-yl)-2-methoxyacetamide], the IC50 [1, 5] is reported as 6 nM, the Lung viral load [2] is reported as 8.1 ± 1.9 pfu/g lung tissue (×10^6) and the “decrease in viral load versus vehicle controls” value [2] is reported as “approximately 80%”.
With `COCC(=O)Nc1cc(COc2ccc(NC(=O)Nc3cc(C(C)(C)C)nn3-c3ccc(CO)cc3)c3ccccc23)ccn1` [Example 49, N-(4-((4-(3-(3-tert-Butyl-1-(4-(hydroxymethyl)phenyl)-1H-pyrazol-5-yl)ureido)naphthalen-1-yloxy)methyl)pyridin-2-yl)-2-methoxyacetamide] the IC50 (p38 MAPKα (MAPK14)) was 5 nM, the IC50 (HCK enzyme) was 24 nM and the IC50 (c-Src enzyme) was 155 nM. The IC50 [1, 4] was 32 nM.
Compound `CNC(=O)Nc1cc(COc2ccc(NC(=O)Nc3cc(C(C)(C)C)nn3-c3ccc(C)cc3)c3ccccc23)ccn1` [Example 2, Methyl 4-((4-(3-(3-tert-butyl-1-p-tolyl-1H-pyrazol-5-yl)ureido)naphthalen-1-yloxy)methyl)pyridin-2-ylurea] has an IC50 (p38 MAPKα (MAPK14)) of 2.8 nM, an IC50 (HCK enzyme) of 17 nM and an IC50 (c-Src enzyme) of 45 nM. For the same compound, the IC50 [1, 4] was 11 nM.
`Cc1ccc(-n2nc(C(C)(C)C)cc2NC(=O)Nc2ccc(OCCc3ccnc(NC(N)=O)c3)c3ccccc23)cc1` [Example 40, 4-(2-(4-(3-(3-tert-Butyl-1-p-tolyl-1H-pyrazol-5-yl)ureido)naphthalen-1-yloxy)ethyl)-3-(pyridin-2-yl)urea] showed an IC50 (HCK enzyme) of 276 nM, an IC50 (c-Src enzyme) of over 17300 nM and an IC50 [1, 5] of 97 nM.
